From patent US20100086623A1, “Chemical Combination for the Generation of Disinfectant and Heat” (priority 2004, published 2010)

Tested on: Staphylococcus aureus
Experiment: Destruction of S. aureus cultures by aqueous chlorine dioxide solutions (plate counts)
Type: cell-based
Protocol: In this test, S. aureus cells were suspended in Butterfield's phosphate buffer diluent with a pH of 7.2. The density of each of these robust collections of S. aureus suspensions was approximately 10^7 colony-forming-units per mL (10^7 CFU/mL). […] Cell counts were made on samples recovered on Baird-Parker Agar with EY-Tellurite and incubated at 35° C. for 48 hours. […] In these test results, S. aureus survival was detected only at the most dilute chlorine dioxide solutions (0.044 ppm). […] This observation is consistent with lethality of chemical agents for destroying microorganisms being the mathematical product of the concentration of the lethal agent (C) and the time (t) of exposure, (C×t).

For `[O][Cl+][O-]` [chlorine dioxide], the “inactivation of the pathogens” value (0.044 ppm chlorine dioxide solution, exposure 24 hours) was 100%, the survivors ([ClO2] 0.044 ppm, 30° C., 3-5 min exposure) was 3.4% survivors and the “CFU/mL × 10^−6” value ([ClO2] 0.044 ppm, 30° C., 3-5 min exposure, control 3.4) was 0.116 CFU/mL × 10^−6. For the same compound, the “CFU/mL × 10^−6” value ([ClO2] 0.044 ppm, exposure for 24 h) was 0.00 CFU/mL × 10^−6, the “CFU/mL × 10^−6” value ([ClO2] 0.044 ppm, exposure over night) was <1.0 × 10^−4 CFU/mL × 10^−6 and the “CFU/mL × 10^−6” value ([ClO2] 0.44 ppm, 30° C., 3-5 min exposure, control 9.55) was 0 CFU/mL × 10^−6. For the same compound, the “CFU/mL × 10^−6” value ([ClO2] 4.4 ppm, 30° C., 3-5 min exposure, control 3.4) was 0.00 CFU/mL × 10^−6 and the “CFU/mL × 10^−6” value ([ClO2] 44 ppm, 30° C., 3-5 min exposure, control 9.55) was 0.00 CFU/mL × 10^−6.
